Laboratory results from patent publication US8575145B2, “Triazolopyridine compounds as PIM kinase inhibitors” (Array BioPharma Inc., priority 2008, dated 2013).
Structures can show the parent of a compound that is named as a salt. Where two headings read alike, the source gives them in different places.

Tests used:
PIM-1 = PIM-1 (Homo sapiens (Human), UniProt P11309); test: PIM-1 Enzyme Assay; format: biochemical
Description: The amount of radiolabeled product is then measured by liquid scintillation counting. The final buffer conditions were as follows: 20 mM K^+MOPS, pH 7.4, 10 mM MgCl2, 0.005% Tween-20, 1 mM DTT. […] Incubations were carried out for 60 min at 22° C. and quenched with 75 μL of 200 mM H3PO4, filtered through a Whatman P81 plate and washed (1×200 μL and 5×100 μL ) with 200 mM H3PO4. Liquid scintillation cocktail (50 μL ) was then added per well, and the plate was counted for 30 s/well using a TopCount NXT.
One-μL aliquots of these were then transferred to the assay mixtures above to give a final concentration of DMSO of 2%. […] For each plate, percent of control (POC) values were calculated for each well. IC50's were estimated from the POC's using a standard 4-parameter logistic model. The IC50 is defined as the concentration of inhibitor at which the POC equals 50 for the fitted curve.

[1] = biological target: GST-tagged recombinant full-length human PIM-2 (Homo sapiens (Human), UniProt Q9P1W9); test: PIM-2 Enzyme Assay; conditions: read-out: PIM-2 IC50
Chain of GST-tagged recombinant full-length human PIM-2 (Q9P1W9 whole entry): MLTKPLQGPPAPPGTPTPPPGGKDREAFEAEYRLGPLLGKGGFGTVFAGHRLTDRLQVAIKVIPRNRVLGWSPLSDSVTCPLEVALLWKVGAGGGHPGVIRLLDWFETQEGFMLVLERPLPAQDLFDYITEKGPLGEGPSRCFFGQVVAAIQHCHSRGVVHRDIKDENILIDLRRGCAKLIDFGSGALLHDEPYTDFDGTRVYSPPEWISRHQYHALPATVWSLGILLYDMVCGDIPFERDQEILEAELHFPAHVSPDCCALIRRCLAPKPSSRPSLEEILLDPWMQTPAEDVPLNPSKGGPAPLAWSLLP

Chain of PIM-1 (P11309 whole entry, species assumed): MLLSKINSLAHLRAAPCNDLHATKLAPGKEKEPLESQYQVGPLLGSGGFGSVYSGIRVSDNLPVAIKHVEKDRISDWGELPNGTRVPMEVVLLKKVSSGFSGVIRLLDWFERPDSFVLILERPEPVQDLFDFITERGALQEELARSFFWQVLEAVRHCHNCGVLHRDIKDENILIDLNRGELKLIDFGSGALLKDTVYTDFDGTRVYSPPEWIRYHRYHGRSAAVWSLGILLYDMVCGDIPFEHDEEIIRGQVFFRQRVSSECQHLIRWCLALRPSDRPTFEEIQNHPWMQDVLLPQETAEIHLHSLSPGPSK

Row | Structure (SMILES) | IC50 (PIM-1; 35 μM ATP, 0.25 nM PIM-1) [nM] | IC50 ([1]; 4 μM ATP, […] PIM-2) [nM] | IC50 [1] [nM] | IC50 (PIM-1) [nM]
1 | Fc1cc(OC2CCNCC2(F)F)c2nc(-c3nnc4ccccn34)ccc2c1 (stereo not shown) [Example 93, 2-([1,2,4]triazolo[4,3-a]pyridin-3-yl)-8-(3,3-difluoropiperidin-4-yloxy)-6-fluoroquinoline dihydrochloride] | 4.4 | 506 |  | 
2 | Fc1ccc2nnc(-c3ccc4cccc(OCC5(F)CCNCC5)c4n3)n2c1 [Example 103, 2-(6-fluoro-[1,2,4]triazolo[4,3-a]pyridin-3-yl)-8-((4-fluoropiperidin-4-yl)methoxy)quinoline dihydrochloride] | 1.4 |  | 65.6 | 
3 | CCN1CCC(F)(COc2cccc3ccc(-c4nnc5ccccn45)nc23)CC1 [Example 104, 2-([1,2,4]triazolo[4,3-a]pyridin-3-yl)-8((1-ethyl-4-fluoropiperidin-4-yl)methoxy)quinoline dihydrochloride] | 3.9 | 191 |  | 
4 | FCCN1CCC(F)(COc2cccc3ccc(-c4nnc5ccccn45)nc23)CC1 [Example 105, 2-([1,2,4]triazolo[4,3-a]pyridin-3-yl)-8-((4-fluoro-1-(2-fluoroethyl)piperidin-4-yl)methoxy)quinoline dihydrochloride] | 8.7 | 409 |  | 
5 | Fc1cc(OCC2(F)CCNCC2)c2nc(-c3nnc4ccccn34)ccc2c1 [Example 106, 2-([1,2,4]triazolo[4,3-a]pyridin-3-yl)-6-fluoro-8-((4-fluoropiperidin-4-yl)methoxy)quinoline dihydrochloride] | 0.5 | 25.4 |  | 
6 | FC1(COc2cccc3ccc(-c4nnc5ccccn45)nc23)CNC1 [Example 107, 2-([1,2,4]triazolo[4,3-a]pyridin-3-yl)-8-((3-fluoroazetidin-3-yl)methoxy)quinoline dihydrochloride] | 9.4 | 1000 |  | 
7 | Fc1cc(OCC2(F)CNC2)c2nc(-c3nnc4ccccn34)ccc2c1 [Example 108, 2-([1,2,4]triazolo[4,3-a]pyridin-3-yl)-6-fluoro-8-((3-fluoroazetidin-3-yl)methoxy)quinoline Dihydrochloride] |  | 489 |  | 7.3
8 | COc1ccc2nnc(-c3ccc4cccc(OCC5(F)CCNCC5)c4n3)n2c1 [Example 109, 8((4-fluoropiperidin-4-yl)methoxy)-2-(6-methoxy-[1,2,4]triazolo[4,3-a]pyridin-3-yl)quinoline dihydrochloride] | 4.7 | 384 |  | 
9 | COc1ccc2nnc(-c3ccc4cc(F)cc(OCC5(F)CCNCC5)c4n3)n2c1 [Example 110, 6-fluoro-8-((4-fluoropiperidin-4-yl)methoxy)-2-(6-methoxy-[1,2,4]triazolo[4,3-a]pyridin-3-yl)quinoline dihydrochloride] | 1.9 | 163 |  | 
10 | COC1(COc2cc(F)cc3ccc(-c4nnc5ccccn45)nc23)CCCNCC1 (stereo not shown) [Example 114, 2-([1,2,4]triazolo[4,3-a]pyridin-3-yl)-6-fluoro-8-((4-methoxyazepan-4-yl)methoxy)quinoline bis-trifluoroacetate] | 0.7 | 86 |  | 
11 | COC1(COc2cc(F)cc3ccc(-c4nnc5ccccn45)nc23)CCCN(CCO)CC1 (stereo not shown) [Example 115, 2-(4-42-([1,2,4]triazolo[4,3-a]pyridin-3-yl)-6-fluoroquinolin-8-yloxy)methyl)-4-methoxyazepan-1-yl)ethanol dihydrochloride] | 1.4 | 222 |  | 
12 | OC1(COc2cccc3ccc(-c4nnc5ccccn45)nc23)CCCNCC1 (stereo not shown) [Example 116, 4-((2-([1,2,4]triazolo[4,3-a]pyridin-3-yl)quinolin-8-yloxy)methyl)azepan-4-ol bis-trifluoroacetate] | 11.8 |  | 1000 | 
13 | COC1(COc2cccc3ccc(-c4nnc5ccccn45)nc23)CCCNCC1 (stereo not shown) [Example 117, 2-([1,2,4]triazolo[4,3-a]pyridin-3-yl)-8-((4-methoxyazepan-4-yl)methoxy)quinoline dihydrochloride] | 1 | 91.5 |  | 
14 | CN1CCC(F)C(Oc2cccc3ccc(-c4nnc5ccccn45)nc23)CC1 (stereo not shown) [Example 119] | 1.3 | 574 |  | 
